Values of other authors as cited in PMC9377007, “An Unexpected Deuterium-Induced Metabolic Switch in Doxophylline” (ACS Medicinal Chemistry Letters, 2022).

Tests used:
[1] = tested on: antibronchospastic and antiasthmatic effects; set-up: method as in PMID 1652045; conditions: ref [31]; cited from earlier work
PDE-III and IV isozymes = tested on: PDE-III and IV isozymes; set-up: method as in PMID 1328102; conditions: ref [30]; cited from earlier work

Structure (SMILES)	antibronchospastic and antiasthmatic effects relative to doxophylline [1]	inhibition of PDE-III and IV isozymes (PDE-III and IV isozymes)
Cn1c(=O)c2c(ncn2CCO)n(C)c1=O [etophylline, 7-hydroxyethyltheophylline]	significantly less active than doxophylline	–
Cn1c(=O)c2c(ncn2CC(=O)O)n(C)c1=O [T-COOH, 7-theophylline acetic acid]	–	specific inhibition
